Data reported in ChEMBL document CHEMBL5215004, “Meroantarctines A-C, Meroterpenoids with Rearranged Skeletons from the Alga-Derived Fungus Penicillium antarcticum KMM 4685 with Potent p-Glycoprotein Inhibitory Activity” (J Nat Prod, 2022).
Activity calls are given as the source filed them. The calls are words filed in the database; no cut-off is given here.

Legend:
PC-3 [1] = assay: Synergistic cytotoxicity against docetaxel-resistant human PC-3 cells assessed as reduction in cell viability at 12.5 to 100 uM incubated for 48 hrs in the presence of docetaxel by MTT assay; type: functional, cell-based; conditions: dose 12.5-100 µM
RWPE-1 = assay: Cytotoxicity against human RWPE-1 cells assessed as reduction in cell viability at <= 100 uM incubated for 48 hrs by MTT assay; type: toxicity, cell-based; conditions: rwpe-1, 48 h
PNT2 = assay: Cytotoxicity against human PNT2 cells assessed as reduction in cell viability at <= 100 uM incubated for 48 hrs by MTT assay; type: toxicity, cell-based; conditions: pnt2, 48 h
[2] = target: ATP-dependent translocase ABCB1 (Homo sapiens, UniProt P08183); assay: Inhibition of p-glycoprotein in docetaxel-resistant human PC-3 cells assessed as inhibition of calcein excretion at 0.39 to 50 uM incubated for 30 mins by fluorescence based plate reader analysis; type: cell-based; conditions: pc-3, 0.5 h, dose 0.39-50 µM
ATP-dependent translocase ABCB1, sequence (P08183 whole entry): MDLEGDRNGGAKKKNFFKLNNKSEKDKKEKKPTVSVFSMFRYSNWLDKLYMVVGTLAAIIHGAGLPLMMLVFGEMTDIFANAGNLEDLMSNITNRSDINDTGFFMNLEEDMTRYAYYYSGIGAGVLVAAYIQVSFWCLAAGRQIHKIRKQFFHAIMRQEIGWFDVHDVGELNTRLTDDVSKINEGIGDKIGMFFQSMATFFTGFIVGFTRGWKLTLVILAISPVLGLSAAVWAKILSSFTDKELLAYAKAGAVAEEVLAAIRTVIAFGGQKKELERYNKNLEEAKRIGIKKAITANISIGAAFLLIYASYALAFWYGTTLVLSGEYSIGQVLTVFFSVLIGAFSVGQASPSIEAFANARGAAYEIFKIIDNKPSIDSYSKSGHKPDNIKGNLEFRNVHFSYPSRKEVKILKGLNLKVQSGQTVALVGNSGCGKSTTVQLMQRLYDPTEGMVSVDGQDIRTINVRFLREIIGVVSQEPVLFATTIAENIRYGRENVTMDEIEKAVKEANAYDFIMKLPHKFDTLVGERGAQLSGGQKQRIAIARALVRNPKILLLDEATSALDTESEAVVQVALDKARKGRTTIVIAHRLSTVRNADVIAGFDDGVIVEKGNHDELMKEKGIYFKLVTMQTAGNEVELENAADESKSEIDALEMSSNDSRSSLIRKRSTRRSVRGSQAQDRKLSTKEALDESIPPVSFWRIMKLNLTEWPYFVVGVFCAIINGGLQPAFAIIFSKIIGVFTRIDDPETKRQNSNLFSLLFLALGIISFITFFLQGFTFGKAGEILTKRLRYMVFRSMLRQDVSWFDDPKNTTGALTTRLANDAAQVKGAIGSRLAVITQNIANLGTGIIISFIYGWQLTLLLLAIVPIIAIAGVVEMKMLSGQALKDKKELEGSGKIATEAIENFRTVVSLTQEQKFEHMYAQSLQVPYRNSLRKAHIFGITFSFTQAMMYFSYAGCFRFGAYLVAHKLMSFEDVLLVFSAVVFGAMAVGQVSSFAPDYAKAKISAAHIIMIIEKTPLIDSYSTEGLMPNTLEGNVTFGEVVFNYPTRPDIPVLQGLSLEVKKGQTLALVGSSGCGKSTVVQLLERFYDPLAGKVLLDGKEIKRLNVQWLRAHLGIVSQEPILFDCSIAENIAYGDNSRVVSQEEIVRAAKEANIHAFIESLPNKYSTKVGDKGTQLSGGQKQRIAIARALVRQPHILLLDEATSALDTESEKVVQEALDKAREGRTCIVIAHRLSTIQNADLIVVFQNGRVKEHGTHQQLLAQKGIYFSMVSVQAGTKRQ

PC-3 [3] = assay: Cytotoxicity against docetaxel-resistant human PC-3 cells assessed as reduction in cell viability at 0.5 to 64 uM pretreated with tariquidar for 1 hrs followed by compound addition and measured after 48 hrs by MTT assay; type: functional, cell-based; conditions: dose 0.5-64 µM

SMILES	Activity (PC-3 [1])	Activity (RWPE-1)	Activity (PNT2)	inhibition (INH) [2]	Activity (PC-3 [3])
COC(=O)[C@@]1(C(=O)C(C)=O)C(C)=C(C)C=C2[C@]34CC[C@H](OC(C)=O)C(C)(C)[C@H]3[C@H](C[C@@]21C)OC4=O	Active	Non-Toxic	Non-Toxic	Active	
CC(=O)O[C@@]12CO[C@@H]1C[C@H](O)[C@@]1(C)C(=O)[C@H](O)C3=C(C)[C@@H](OC(=O)[C@H](O)[C@@H](NC(=O)OC(C)(C)C)c4ccccc4)C[C@@](O)([C@@H](OC(=O)c4ccccc4)[C@H]21)C3(C)C					Active
COC(=O)[C@@]12C(=O)C(=O)O[C@@]3(C=C1C)[C@]2(C)C[C@@H]1OC(=O)[C@]32CC[C@H](OC(C)=O)C(C)(C)[C@@H]12	Active	Non-Toxic	Non-Toxic	Active	
C=C1C=C2[C@]34CC[C@H](OC(C)=O)C(C)(C)[C@H]3[C@H](C[C@]2(C)[C@]2(C(=O)OC)C(=O)[C@](C)(O)C(=O)[C@]12C)OC4=O	Active	Non-Toxic	Non-Toxic	Active	
COC(=O)[C@H]1C(=O)O[C@]2(/C=C(\C)C(C)=O)[C@]34CC[C@H](OC(C)=O)C(C)(C)[C@H]3[C@H](C[C@]12C)OC4=O	Active	Non-Toxic	Non-Toxic	Active	
